Several values for one entry are separate records, joined by “and”; a condition that tells them apart may be missing. Equal values may be shown once.
How the values were obtained:
Format in all cases: cell-based
KCNQ2/3 = KCNQ2/3 (Homo sapiens, UniProt O43525+O43526); experiment: TEVC of KCNQ2/3 channels expressed in Xenopus oocytes
Description: (§1) We generated cRNA transcripts encoding human KCNQ1, KCNQ2, KCNQ3, KCNQ4, KCNQ5 or GLRA1 (NM_001146040) (GenScript, Piscataway, NJ, USA) by in vitro transcription using the T7 polymerase mMessage mMachine kit (Thermo Fisher Scientific), after vector linearization, from cDNA sub-cloned into plasmids incorporating Xenopus laevis β-globin 5′ and 3′ UTRs flanking the coding region to enhance translation and cRNA stability. We quantified cRNA by spectrophotometry. […] We injected defolliculated stage V and VI Xenopus laevis oocytes (Ecocyte Bioscience, Austin, TX and Xenoocyte, Dexter, MI) with KCNQ channel α subunit (5-20 ng) or GLRA1 (20 ng) cRNAs. We incubated the oocytes at 16 °C in Barth’s saline solution (Ecocyte Bioscience) containing penicillin and streptomycin, with daily washing, for 2–5 days prior to two-electrode voltage-clamp (TEVC) recording.
(§2) For recording, oocytes were placed in a small-volume oocyte bath (Warner) and viewed them with a dissection microscope. Chemicals were sourced from Sigma, Matrix Scientific and Santa Cruz. […] All stock solutions were diluted in bath solution on the day of experiments. KCNQ2/3 channel activation was screened for using either 30 µM or 100 µM concentrations of each of the six compounds, then dose responses were conducted as appropriate. Bath solution was (in mM): 96 NaCl, 4 KCl, 1 MgCl2, 1 CaCl2, 10 HEPES (pH 7.6). Compounds were introduced into the oocyte recording bath by gravity perfusion at a constant flow of 1 ml per minute for 3 min prior to recording. Pipettes were of 1–2 MΩ resistance when filled with 3 M KCl. Currents were recorded in response to voltage pulses between −120 or −80 mV and + 40 mV at 20 mV intervals from a holding potential of −80 mV, to yield current-voltage relationships, current magnitude, and for quantifying activation rate. We analyzed data using Clampfit (Molecular Devices) and Graphpad Prism software (GraphPad, San Diego, CA, USA); values are stated as mean ± SEM. We plotted raw or normalized tail currents versus prepulse voltage and fitted with a single Boltzmann function:1 g=(A1−A2)/1+exp(V12−V)∕VS+A2, where g is the normalized tail conductance, A1 is the initial value at −∞, A2 is the final value at +∞, V1/2 is the half-maximal voltage of activation and Vs the slope factor. Activation, deactivation, wash-in and washout kinetics were fitted with single exponential functions to yield a τ value.

KCNQ2 = KCNQ2 (Homo sapiens, UniProt O43526); experiment: Relative ion permeability of KCNQ2; design: dose or concentration left out as unconfirmed
Description: According to the Goldman–Hodgkin–Katz (GHK) voltage equation:2 Erev=RT∕Fln(PK[K^+]O+PNa[Na]O+PCl[Cl]i)/(PK[K^+]i+PNa[Na]i+PCl[Cl]o), where Erev is the absolute reversal potential and P is permeability. This permits calculation of the relative permeability of each ion if concentrations on either side of the membrane are known. A modified version of this equation was used here to determine relative permeability of two ions in a system in which only the extracellular ion concentration was known. Thus, relative permeability of Rb^+, Cs^+, and Na^+ compared to K^+ ions was calculated for KCNQ2 and KCNQ3* by plotting the I/V relationships for each channel with each extracellular ion (100 mM) (using the voltage protocol shown in Fig. 9g) and comparing them to that with 100 mM extracellular K^+ ion to yield a change in reversal potential (ΔErev) for each ion compared to that of K^+. Permeability ratios for each ion (X) compared to K^+ were then calculated as3 ΔErev=Erev,X−Erev,K=lnPX/PK. […]

KCNQ2-R213A/KCNQ3-R242A = KCNQ2-R213A/KCNQ3-R242A (Homo sapiens, UniProt O43525+O43526, R213A/R242A); experiment: TEVC of RA/RA mutant KCNQ2/3; conditions: GABA up to 1 mM
Description: as §1
For recording, oocytes were placed in a small-volume oocyte bath (Warner) and viewed them with a dissection microscope. […] Currents were recorded in response to voltage pulses between −120 or −80 mV and + 40 mV at 20 mV intervals from a holding potential of −80 mV, to yield current-voltage relationships, current magnitude, and for quantifying activation rate. We analyzed data using Clampfit (Molecular Devices) and Graphpad Prism software (GraphPad, San Diego, CA, USA); values are stated as mean ± SEM. […]

KCNQ4 = KCNQ4 (Homo sapiens, UniProt P56696); experiment: TEVC of homomeric KCNQ4 expressed in Xenopus oocytes; conditions: dose response
Description: We generated cRNA transcripts encoding human KCNQ1, KCNQ2, KCNQ3, KCNQ4, KCNQ5 or GLRA1 (NM_001146040) (GenScript, Piscataway, NJ, USA) by in vitro transcription using the T7 polymerase mMessage mMachine kit (Thermo Fisher Scientific), after vector linearization, from cDNA sub-cloned into plasmids incorporating Xenopus laevis β-globin 5′ and 3′ UTRs flanking the coding region to enhance translation and cRNA stability. We quantified cRNA by spectrophotometry. We generated mutant KCNQ2 and KCNQ3 cDNAs by site-directed mutagenesis using a QuikChange kit (Stratagene, San Diego, CA) and prepared the corresponding cRNAs as above. We injected defolliculated stage V and VI Xenopus laevis oocytes (Ecocyte Bioscience, Austin, TX and Xenoocyte, Dexter, MI) with KCNQ channel α subunit (5-20 ng) or GLRA1 (20 ng) cRNAs. We incubated the oocytes at 16 °C in Barth’s saline solution (Ecocyte Bioscience) containing penicillin and streptomycin, with daily washing, for 2–5 days prior to two-electrode voltage-clamp (TEVC) recording.
as §2, with “We performed TEVC at room temperature using an OC-725C amplifier (Warner Instruments, Hamden, CT) and pClamp10 software (Molecular Devices, Sunnyvale, CA) 2–5 days after cRNA injection as described in the section above. For” for “For”

[1] = 100 µM, −60 mV, single exponential fit

KCNQ2/3, sequence (O43525 whole entry): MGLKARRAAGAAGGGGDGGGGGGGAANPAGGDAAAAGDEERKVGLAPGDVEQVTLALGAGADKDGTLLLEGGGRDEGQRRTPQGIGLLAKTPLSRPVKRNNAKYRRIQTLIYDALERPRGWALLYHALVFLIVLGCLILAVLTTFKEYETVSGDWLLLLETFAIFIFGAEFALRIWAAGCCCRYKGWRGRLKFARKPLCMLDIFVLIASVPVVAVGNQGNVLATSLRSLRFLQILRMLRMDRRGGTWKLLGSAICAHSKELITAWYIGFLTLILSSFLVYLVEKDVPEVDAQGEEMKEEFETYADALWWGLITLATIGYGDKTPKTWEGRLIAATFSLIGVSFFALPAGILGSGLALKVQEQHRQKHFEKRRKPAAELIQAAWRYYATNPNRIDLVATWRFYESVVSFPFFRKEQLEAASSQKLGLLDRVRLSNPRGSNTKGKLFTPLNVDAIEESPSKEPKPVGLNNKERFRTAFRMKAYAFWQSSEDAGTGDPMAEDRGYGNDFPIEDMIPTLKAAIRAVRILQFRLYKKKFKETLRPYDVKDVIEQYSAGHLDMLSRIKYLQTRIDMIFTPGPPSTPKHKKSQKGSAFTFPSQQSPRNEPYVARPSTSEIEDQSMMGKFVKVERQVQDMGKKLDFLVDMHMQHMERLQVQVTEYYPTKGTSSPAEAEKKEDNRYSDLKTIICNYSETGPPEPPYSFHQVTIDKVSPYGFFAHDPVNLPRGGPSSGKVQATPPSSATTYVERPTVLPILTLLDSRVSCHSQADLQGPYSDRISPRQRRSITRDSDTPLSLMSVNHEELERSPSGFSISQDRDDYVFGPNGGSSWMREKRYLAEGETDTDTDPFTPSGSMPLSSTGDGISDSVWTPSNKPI
KCNQ2/3, sequence (O43526 whole entry): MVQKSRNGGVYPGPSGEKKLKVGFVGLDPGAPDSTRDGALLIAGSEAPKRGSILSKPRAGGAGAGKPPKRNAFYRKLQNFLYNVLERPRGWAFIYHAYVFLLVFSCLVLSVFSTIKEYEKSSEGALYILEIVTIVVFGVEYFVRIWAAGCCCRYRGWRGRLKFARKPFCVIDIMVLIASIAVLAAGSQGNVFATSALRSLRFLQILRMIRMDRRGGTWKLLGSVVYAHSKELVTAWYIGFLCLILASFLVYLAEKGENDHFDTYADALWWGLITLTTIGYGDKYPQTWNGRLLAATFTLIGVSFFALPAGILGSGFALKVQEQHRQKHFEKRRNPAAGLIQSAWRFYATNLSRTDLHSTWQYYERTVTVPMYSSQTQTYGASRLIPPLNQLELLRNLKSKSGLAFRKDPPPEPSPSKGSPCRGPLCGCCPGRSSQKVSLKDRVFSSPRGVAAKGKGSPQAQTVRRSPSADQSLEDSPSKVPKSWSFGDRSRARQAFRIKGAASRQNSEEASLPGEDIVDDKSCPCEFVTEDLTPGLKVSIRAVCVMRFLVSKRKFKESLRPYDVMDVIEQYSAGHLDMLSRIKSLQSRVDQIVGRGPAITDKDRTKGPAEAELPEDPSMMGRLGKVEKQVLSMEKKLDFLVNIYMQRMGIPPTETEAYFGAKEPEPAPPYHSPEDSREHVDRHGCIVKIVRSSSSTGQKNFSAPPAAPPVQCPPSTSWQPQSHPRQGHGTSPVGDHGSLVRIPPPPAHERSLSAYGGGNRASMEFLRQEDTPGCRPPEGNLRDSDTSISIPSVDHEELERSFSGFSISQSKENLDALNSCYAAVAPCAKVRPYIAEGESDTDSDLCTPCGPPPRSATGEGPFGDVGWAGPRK

tau of KCNQ2/3 current decrease during washout (KCNQ2/3; [1]): 40 s and 39 ± 10 s | tau of KCNQ2/3 current increase during wash-in (KCNQ2/3; [1]): ~ 15 s and 15 ± 3 s | increase in KCNQ2/3 current at −60 mV (KCNQ2/3; either compound alone, 1 uM): ~ fivefold | EC50 (KCNQ2/3; shift in voltage dependence of activation (ΔV0.5act), TEVC in oocytes, read-out: EC50, KCNQ2/3 activation): 51 ± 21 nM | relative Na+ permeability (compared to K+) of KCNQ2 (KCNQ2): not KCNQ2 | activation / sensitivity of RA/RA mutant KCNQ2/3 (KCNQ2-R213A/KCNQ3-R242A): larger reduction in sensitivity | effects on KCNQ4 (KCNQ4): negligible or much less potent effects
Structure (SMILES): CS(=O)(=O)N(CC(=O)O)c1cccc(F)c1 [3FMSG]
KCNQ2/3 activation and deactivation rates (KCNQ2/3; 100 µM, single exponential fit (τ)): speeded KCNQ2/3 activation and slowed its deactivation

Source: article PMC6825221, “In silico re-engineering of a neurotransmitter to activate KCNQ potassium channels in an isoform-specific manner” (Communications Biology, 2019)
